Like-named read-outs stand apart in the source and are kept apart here.
What was measured:
[1] = biological target: wild-type un-phosphorylated FGFR3 (Homo sapiens, UniProt P22607); test: FGFR Enzymatic Assay (FRET peptide phosphorylation), FGFR3
Procedure: (§1) The inhibitor potency of the exemplified compounds was determined in an enzyme discontinuous assay that measures peptide phosphorylation using FRET measurements to detect product formation. Inhibitors were serially diluted in DMSO and a volume of 0.2 μL was transferred to the wells of a 384-well plate. […] Appropriate controls (enzyme blank and enzyme with no inhibitor) were included on the plate. […] The 10 μL/well reaction concentration of the peptide substrate was 500 nM whereas the ATP concentration was maintained near or below the ATP Km. The ATP Km values were pre-determined in a separate series of experiments. The reaction plate was incubated at 25° C. for 1 hr and the reactions were ended with the addition of 5 μL/well of quench solution (50 mM Tris, 150 mM NaCl, 0.5 mg/mL BSA, pH 7.8; 45 mM EDTA, 600 nM staurosporin, with Perkin Elmer Lance Reagents at 3.75 nM Eu-antibody PY20 and 180 nM APC-Streptavidin). The plate was allowed to equilibrate for ˜10 minutes at ambient temperature before scanning on a PheraStar plate reader (BMG Labtech) instrument.
(§2) Either GraphPad prism or XLfit was used to analyze the data. The IC50 values were derived by fitting the data to a four parameter logistic equation producing a sigmoidal dose-response curve with a variable Hill coefficient. Prism equation: Y=Bottom+(Top-Bottom)/(1+10^((Log IC50-X)*Hill slope)); XLfit equation: Y=(A+((B−A)/(1+((X/C)^D)))) where X is the logarithm of inhibitor concentration and Y is the response.
(§3) GraphPad prism3 was used to analyze the data. The IC50 values were derived by fitting the data to the equation for a sigmoidal dose-response with a variable slope. Y=Bottom+(Top-Bottom)/(1+10^((Log IC50-X)*Hill Slope)) where X is the logarithm of concentration and Y is the response.

[2] = biological target: wild-type un-phosphorylated FGFR4 (Homo sapiens, UniProt P22455); test: FGFR Enzymatic Assay (FRET peptide phosphorylation), FGFR4
[3] = biological target: wild-type un-phosphorylated FGFR1 (Homo sapiens, UniProt P11362); test: FGFR Enzymatic Assay (FRET peptide phosphorylation), FGFR1; conditions: pre-incubated for 4 hours
Procedure: as §1, §2, §3
The data in Table 1 was measured in wild-type un-phosphorylated FGFR1, FGFR2, FGFR3, and FGFR4 proteins.

[4] = biological target: wild-type un-phosphorylated FGFR2 (Homo sapiens, UniProt P21802); test: FGFR Enzymatic Assay (FRET peptide phosphorylation), FGFR2
[5] = FGFR1, wild-type un-phosphorylated FGFR1
[6] = read-out: FGFR2, wild-type un-phosphorylated FGFR2, pre-incubated for 4 hours
[7] = read-out: FGFR1, wild-type un-phosphorylated FGFR1
[8] = read-out: FGFR4, wild-type un-phosphorylated FGFR4, pre-incubated for 4 hours
[9] = read-out: FGFR3, wild-type un-phosphorylated FGFR3, pre-incubated for 4 hours

wild-type un-phosphorylated FGFR4, sequence (P22455 22-802): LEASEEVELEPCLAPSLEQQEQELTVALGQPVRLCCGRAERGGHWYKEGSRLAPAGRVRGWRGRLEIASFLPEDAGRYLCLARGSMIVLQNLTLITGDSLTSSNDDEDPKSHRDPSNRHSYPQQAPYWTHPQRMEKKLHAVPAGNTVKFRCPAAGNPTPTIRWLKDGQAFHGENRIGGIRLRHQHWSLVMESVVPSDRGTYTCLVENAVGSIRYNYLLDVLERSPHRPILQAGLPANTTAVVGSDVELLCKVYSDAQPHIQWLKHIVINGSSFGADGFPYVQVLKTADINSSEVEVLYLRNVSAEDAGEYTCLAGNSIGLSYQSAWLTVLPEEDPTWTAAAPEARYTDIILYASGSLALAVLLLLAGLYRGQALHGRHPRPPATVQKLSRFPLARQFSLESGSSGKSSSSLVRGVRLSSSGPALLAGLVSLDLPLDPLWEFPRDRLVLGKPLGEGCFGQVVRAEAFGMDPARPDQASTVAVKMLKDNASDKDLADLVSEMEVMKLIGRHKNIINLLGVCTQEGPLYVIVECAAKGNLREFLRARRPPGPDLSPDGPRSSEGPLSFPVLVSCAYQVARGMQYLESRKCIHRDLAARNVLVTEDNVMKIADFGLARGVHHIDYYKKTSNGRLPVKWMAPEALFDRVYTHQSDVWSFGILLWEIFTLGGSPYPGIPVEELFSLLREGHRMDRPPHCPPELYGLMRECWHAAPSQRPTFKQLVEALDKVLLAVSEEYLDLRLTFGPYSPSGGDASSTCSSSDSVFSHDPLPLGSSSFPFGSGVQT
wild-type un-phosphorylated FGFR1, sequence (P11362 22-822): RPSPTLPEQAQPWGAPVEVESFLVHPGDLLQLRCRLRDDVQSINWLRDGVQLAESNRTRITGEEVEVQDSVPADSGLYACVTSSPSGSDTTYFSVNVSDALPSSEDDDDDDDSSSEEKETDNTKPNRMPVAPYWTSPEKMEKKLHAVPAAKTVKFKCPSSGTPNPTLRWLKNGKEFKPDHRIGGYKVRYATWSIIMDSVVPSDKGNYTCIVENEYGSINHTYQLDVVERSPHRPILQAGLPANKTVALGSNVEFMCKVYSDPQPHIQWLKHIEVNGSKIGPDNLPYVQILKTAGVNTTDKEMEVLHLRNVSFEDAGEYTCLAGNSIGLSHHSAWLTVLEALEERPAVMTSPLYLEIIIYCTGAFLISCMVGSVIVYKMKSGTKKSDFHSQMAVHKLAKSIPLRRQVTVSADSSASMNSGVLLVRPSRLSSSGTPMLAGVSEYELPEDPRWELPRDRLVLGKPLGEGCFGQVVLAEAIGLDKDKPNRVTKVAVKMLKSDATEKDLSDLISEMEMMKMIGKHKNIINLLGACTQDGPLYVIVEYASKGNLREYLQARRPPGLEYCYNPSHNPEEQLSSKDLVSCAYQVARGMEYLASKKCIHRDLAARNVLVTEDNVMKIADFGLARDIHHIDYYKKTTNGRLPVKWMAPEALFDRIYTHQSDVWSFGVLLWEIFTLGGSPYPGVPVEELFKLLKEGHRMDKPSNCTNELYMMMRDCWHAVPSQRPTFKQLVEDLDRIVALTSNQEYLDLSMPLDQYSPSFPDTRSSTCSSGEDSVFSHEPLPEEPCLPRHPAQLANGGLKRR
wild-type un-phosphorylated FGFR2, sequence (P21802 22-821): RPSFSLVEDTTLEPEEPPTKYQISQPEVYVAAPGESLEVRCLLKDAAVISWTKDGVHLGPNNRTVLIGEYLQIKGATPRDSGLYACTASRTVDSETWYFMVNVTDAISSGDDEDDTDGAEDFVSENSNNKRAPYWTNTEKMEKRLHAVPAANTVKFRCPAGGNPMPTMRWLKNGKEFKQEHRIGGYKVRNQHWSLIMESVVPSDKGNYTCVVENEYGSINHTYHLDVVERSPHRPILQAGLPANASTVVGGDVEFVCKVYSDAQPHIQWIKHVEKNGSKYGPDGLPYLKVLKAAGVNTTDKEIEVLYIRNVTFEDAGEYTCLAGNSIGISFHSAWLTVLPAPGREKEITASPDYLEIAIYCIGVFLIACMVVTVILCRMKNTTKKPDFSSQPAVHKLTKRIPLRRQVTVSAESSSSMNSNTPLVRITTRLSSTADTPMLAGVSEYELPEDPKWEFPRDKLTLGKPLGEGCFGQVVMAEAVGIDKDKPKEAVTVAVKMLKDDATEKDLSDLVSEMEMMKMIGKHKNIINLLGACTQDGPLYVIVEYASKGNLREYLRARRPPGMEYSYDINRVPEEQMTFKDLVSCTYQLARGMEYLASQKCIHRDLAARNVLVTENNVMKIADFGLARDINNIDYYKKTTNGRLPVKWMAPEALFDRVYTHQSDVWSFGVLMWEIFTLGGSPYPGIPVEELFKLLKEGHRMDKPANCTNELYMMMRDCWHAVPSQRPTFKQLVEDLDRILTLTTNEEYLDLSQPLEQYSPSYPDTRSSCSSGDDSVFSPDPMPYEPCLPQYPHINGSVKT
wild-type un-phosphorylated FGFR3, sequence (P22607 23-806): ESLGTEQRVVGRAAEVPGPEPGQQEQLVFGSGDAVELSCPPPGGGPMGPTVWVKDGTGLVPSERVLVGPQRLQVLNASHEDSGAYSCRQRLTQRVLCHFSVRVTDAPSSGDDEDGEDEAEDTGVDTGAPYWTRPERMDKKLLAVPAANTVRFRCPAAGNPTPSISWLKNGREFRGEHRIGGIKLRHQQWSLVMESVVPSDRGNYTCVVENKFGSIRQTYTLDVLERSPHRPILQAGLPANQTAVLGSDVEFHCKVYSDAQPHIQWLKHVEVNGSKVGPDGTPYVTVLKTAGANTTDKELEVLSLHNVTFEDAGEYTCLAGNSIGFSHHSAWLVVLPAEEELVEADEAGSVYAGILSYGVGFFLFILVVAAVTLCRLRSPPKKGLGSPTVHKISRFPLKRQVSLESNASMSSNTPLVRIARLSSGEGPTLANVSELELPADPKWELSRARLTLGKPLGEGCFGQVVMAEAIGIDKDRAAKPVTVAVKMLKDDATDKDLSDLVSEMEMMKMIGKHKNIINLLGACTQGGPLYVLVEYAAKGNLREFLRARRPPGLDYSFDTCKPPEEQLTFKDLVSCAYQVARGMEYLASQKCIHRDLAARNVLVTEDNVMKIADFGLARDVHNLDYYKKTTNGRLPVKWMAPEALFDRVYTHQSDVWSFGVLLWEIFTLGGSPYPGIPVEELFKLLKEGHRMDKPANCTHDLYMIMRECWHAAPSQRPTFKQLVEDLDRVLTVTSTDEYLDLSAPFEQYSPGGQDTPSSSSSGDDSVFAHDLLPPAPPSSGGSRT

SMILES | IC50 [1] [nM] | IC50 [2] [nM] | IC50 [3, 5] [nM] | IC50 [4, 6] [nM] | IC50 [3, 7] [nM] | IC50 [4] [nM] | IC50 [2, 8] [nM] | IC50 [1, 9] [nM]
COc1cc2[nH]nc(-c3ccc(C4CCN(C(=O)CO)C4)nc3)c2nc1-c1cccc2c1CCC2 (single isomer, unassigned) [Example 102, 1-(3-(5-(5-(2,3-Dihydro-1H-inden-4-yl)-6-methoxy-1H-pyrazolo[4,3-b]pyridin-3-yl)pyridin-2-yl)pyrrolidin-1-yl)-2-hydroxyethan-1-one] |  |  |  | < 6 | 6 to 40 |  | 6 to 40 | < 6
COc1cc2[nH]nc(-c3ccc(C4CCN(C(C)=O)C4)nc3)c2nc1-c1cccc2c1CCC2 (single isomer, unassigned) [Example 104, 1-(3-(5-(5-(2,3-Dihydro-1H-inden-4-yl)-6-methoxy-1H-pyrazolo[4,3-b]pyridin-3-yl)pyridin-2-yl)pyrrolidin-1-yl)ethan-1-one] |  |  |  | < 6 | 6 to 40 |  | 6 to 40 | < 6
COc1cc2[nH]nc(-c3ccc(C4CCN(C(C)=O)CC4)nc3)c2nc1-c1cccc2c1CCC2C#N (single isomer, unassigned) [Example 182, 4-(3-(6-(1-Acetylpiperidin-4-yl)pyridin-3-yl)-6-methoxy-1H-pyrazolo[4,3-b]pyridin-5-yl)-2,3-dihydro-1H-indene-1-carbonitrile] | < 6 |  |  |  | 6 to 40 | < 6 | 6 to 40 | 
COc1cc2[nH]nc(-c3ccc(C4CCN(C(C)=O)C4)nc3)c2nc1-c1cccc2c1CCC2C#N (single isomer, unassigned) [Example 183, 4-(3-(6-(1-Acetylpyrrolidin-3-yl)pyridin-3-yl)-6-methoxy-1H-pyrazolo[4,3-b]pyridin-5-yl)-2,3-dihydro-1H-indene-1-carbonitrile] | < 6 |  |  |  | 6 to 40 | < 6 | 6 to 40 | 
COc1cc2[nH]nc(-c3ccc(C4CCN(C(=O)N5CCOCC5)C4)nc3)c2nc1-c1cccc2c1CCC2C#N (single isomer, unassigned) [Example 184, 4-(6-Methoxy-3-(6-(1-(morpholine-4-carbonyl)pyrrolidin-3-yl)pyridin-3-yl)-1H-pyrazolo[4,3-b]pyridin-5-yl)-2,3-dihydro-1H-indene-1-carbonitrile] | < 6 |  |  |  | 6 to 40 | < 6 | 6 to 40 | 
COc1cc2[nH]nc(-c3cnn(CC#N)c3)c2nc1-c1cccc2c1CCC2C#N (single isomer, unassigned) [Example 185, 4-(3-(1-(Cyanomethyl)-1H-pyrazol-4-yl)-6-methoxy-1H-pyrazolo[4,3-b]pyridin-5-yl)-2,3-dihydro-1H-indene-1-carbonitrile] | < 6 |  | 40 to 100 |  |  | < 6 | 6 to 40 | 
COc1cc2[nH]nc(-c3cnn(Cc4ccncc4)c3)c2nc1-c1cccc2c1CCC2 [Example 27, 5-(2,3-Dihydro-1H-inden-4-yl)-6-methoxy-3-(1-(pyridin-4-ylmethyl)-1H-pyrazol-4-yl)-1H-pyrazolo[4,3-b]pyridine] |  | 40 to 100 | 40 to 100 |  |  | < 6 |  | 
COc1cc2[nH]nc(-c3ccc(C45CC4CN(C(=O)[C@H]4COCCN4C)C5)nc3)c2nc1-c1cccc2c1CCC2 (stereo partly drawn) [Example 192, (1-(5-(5-(2,3-Dihydro-1H-inden-4-yl)-6-methoxy-1H-pyrazolo[4,3-b]pyridin-3-yl)pyridin-2-yl)-3-azabicyclo[3.1.0]hexan-3-yl)((R)-4-methylmorpholin-3-yl)methanone] | < 6 |  |  |  | 6 to 40 | < 6 |  | 
COc1cc2[nH]nc(-c3ccc(C4(C#N)CCN(C(=O)[C@H]5COCCN5C)C4)nc3)c2nc1-c1cccc2c1CCC2 (stereo partly drawn) [Example 195, 3-(5-(5-(2,3-Dihydro-1H-inden-4-yl)-6-methoxy-1H-pyrazolo[4,3-b]pyridin-3-yl)pyridin-2-yl)-1-((R)-4-methylmorpholine-3-carbonyl)pyrrolidine-3-carbonitrile] | < 6 |  |  |  | 6 to 40 | < 6 |  | 
COc1cc2[nH]nc(-c3ccc(C4(C#N)CCN(C(=O)[C@H]5COCCN5C)CC4)nc3)c2nc1-c1cccc2c1CCC2 [Example 196, (R)-4-(5-(5-(2,3-Dihydro-1H-inden-4-yl)-6-methoxy-1H-pyrazolo[4,3-b]pyridin-3-yl)pyridin-2-yl)-1-(4-methylmorpholine-3-carbonyl)piperidine-4-carbonitrile] | < 6 |  |  |  | 6 to 40 | < 6 |  | 
COc1cc2[nH]nc(-c3cnn(C45CC4CN(C(=O)CO)C5)c3)c2nc1-c1cccc2c1CCC2 (centres unmarked) [Example 197, 1-(1-(4-(5-(2,3-Dihydro-1H-inden-4-yl)-6-methoxy-1H-pyrazolo[4,3-b]pyridin-3-yl)-1H-pyrazol-1-yl)-3-azabicyclo[3.1.0]hexan-3-yl)-2-hydroxyethan-1-one] | < 6 |  |  |  | 6 to 40 | < 6 |  | 

Next, values leading:

IC50 [1] [nM] | IC50 [2] [nM] | IC50 [3, 5] [nM] | IC50 [4, 6] [nM] | IC50 [3, 7] [nM] | IC50 [4] [nM] | IC50 [2, 8] [nM] | IC50 [1, 9] [nM] | SMILES
< 6 | > 100 | 40 to 100 | 6 to 40 |  |  |  |  | COc1cc2[nH]nc(-c3cnn(C)c3)c2nc1-c1cccc2c1CC(O)C2 (single isomer, unassigned) [Example 10, 4-(6-Methoxy-3-(1-methyl-1H-pyrazol-4-yl)-1H-pyrazolo[4,3-b]pyridin-5-yl)-2,3-dihydro-1H-inden-2-ol]
< 6 | > 100 |  |  | 6 to 40 | < 6 |  |  | [2H]C1(O)Cc2cccc(-c3nc4c(-c5cnn(C)c5)n[nH]c4cc3OC)c2C1 (single isomer, unassigned) [Example 74, 4-(6-Methoxy-3-(1-methyl-1H-pyrazol-4-yl)-1H-pyrazolo[4,3-b]pyridin-5-yl) 2,3-dihydro-1H-inden-2-d-2-ol]
< 6 |  |  |  | 6 to 40 | < 6 | 6 to 40 |  | COc1cc2[nH]nc(-c3ccc(C4CCN(C(=O)CO)C4)nc3)c2nc1-c1cccc2c1CCC2 (single isomer, unassigned) [Example 101, 1-(3-(5-(5-(2,3-Dihydro-1H-inden-4-yl)-6-methoxy-1H-pyrazolo[4,3-b]pyridin-3-yl)pyridin-2-yl)pyrrolidin-1-yl)-2-hydroxyethan-1-one]
< 6 |  |  |  | 6 to 40 | < 6 | 6 to 40 |  | COc1cc2[nH]nc(-c3ccc(C4CCN(C(C)=O)C4)nc3)c2nc1-c1cccc2c1CCC2 (single isomer, unassigned) [Example 103, 1-(3-(5-(5-(2,3-Dihydro-1H-inden-4-yl)-6-methoxy-1H-pyrazolo[4,3-b]pyridin-3-yl)pyridin-2-yl)pyrrolidin-1-yl)ethan-1-one]
< 6 |  |  |  | 6 to 40 | < 6 | 6 to 40 |  | COc1cc2[nH]nc(-c3ccc(C4CCN(C5CCNC5=O)C4)nc3)c2nc1-c1cccc2c1CCC2 (single isomer, unassigned) [Example 105, 3-(5-(5-(2,3-Dihydro-1H-inden-4-yl)-6-methoxy-1H-pyrazolo[4,3-b]pyridin-3-yl)pyridin-2-yl)-[1,3′-bipyrrolidin]-2′-one]
< 6 |  |  |  | 6 to 40 | < 6 | 6 to 40 |  | COc1cc2[nH]nc(-c3ccc(C4CCN(C5CCN(C)C5=O)C4)nc3)c2nc1-c1cccc2c1CCC2 (single isomer, unassigned) [Example 106, 3-(5-(5-(2,3-Dihydro-1H-inden-4-yl)-6-methoxy-1H-pyrazolo[4,3-b]pyridin-3-yl)pyridin-2-yl)-1′-methyl-[1,3′-bipyrrolidin]-2′-one]
< 6 |  |  |  | 6 to 40 | < 6 | 6 to 40 |  | COc1cc2[nH]nc(-c3ccc(C4CCN(C(C)C(N)=O)C4)nc3)c2nc1-c1cccc2c1CCC2 (single isomer, unassigned) [Example 107, 2-(3-(5-(5-(2,3-Dihydro-1H-inden-4-yl)-6-methoxy-1H-pyrazolo[4,3-b]pyridin-3-yl)pyridin-2-yl)pyrrolidin-1-yl)propanamide]
< 6 |  |  |  | 6 to 40 | < 6 | 6 to 40 |  | COc1cc2[nH]nc(-c3ccc(C4CCN(C(=O)C5COCCN5C)C4)nc3)c2nc1-c1cccc2c1CCC2 (single isomer, unassigned) [Example 109]
< 6 |  |  |  | 6 to 40 | < 6 | 6 to 40 |  | COc1cc2[nH]nc(-c3ccc(C4CCC(N(C)C(=O)CO)C4)nc3)c2nc1-c1cccc2c1CCC2 (single isomer, unassigned) [Example 155, N-(3-(5-(5-(2,3-Dihydro-1H-inden-4-yl)-6-methoxy-1H-pyrazolo[4,3-b]pyridin-3-yl)pyridin-2-yl)cyclopentyl)-2-hydroxy-N-methylacetamide]
< 6 |  |  |  | 6 to 40 | < 6 | 6 to 40 |  | COCC(=O)N1CC[C@H](n2cc(-c3n[nH]c4cc(OC)c(-c5cccc6c5CCC6C#N)nc34)cn2)C1 (single isomer, unassigned) [Example 168]
< 6 |  |  |  | 6 to 40 | < 6 | 6 to 40 |  | COc1cc2[nH]nc(-c3ccc(C4CCN(C(=O)N5CCOCC5)CC4)nc3)c2nc1-c1cccc2c1CCC2C#N (single isomer, unassigned) [Example 181, 4-(6-Methoxy-3-(6-(1-(morpholine-4-carbonyl)piperidin-4-yl)pyridin-3-yl)-1H-pyrazolo[4,3-b]pyridin-5-yl)-2,3-dihydro-1H-indene-1-carbonitrile]
